Measured values as given in patent publication US20150119373A1, “NOVEL BETULINIC ACID DERIVATIVES AS HIV INHIBITORS” (HETERO RESEARCH FOUNDATION, priority 2012, published 2015).
Like-named read-outs stand apart in the source and are kept apart here.

Legend:
[1] = Single dose oral pharmacokinetic study in mice; format: in vivo; details: for AUC(0-inf) / Cmax / Tmax / AUC(0-t): mouse, plasma
Method: The test item was administered through oral route to animals (rat/mice) at 30 mg/kg dose in a suitable vehicle at 10 ml/kg dose volume. Blood samples (˜50 uL at each time point) were collected from retro-orbital plexus using K3 EDTA as anticoagulant in eppendorf tubes at defined time intervals under light ether anesthesia. The samples were centrifuged at 3500×g to separate plasma and stored at −80° C. until analysis.
Sample analysis: Test samples were analyzed using LC-MS-MS after developing fit-for-purpose method for each of test compound.

HIV-1 strain 92HT599 = assay: Antiviral activity: p24 estimation in MT2 cells infected with HIV-1 strain 92HT599; format: cell-based; details: for inhibition at 0.1 µM: read-out: Antiviral activity % inhibition 100 nM; for inhibition at 1 µM: read-out: Antiviral activity % inhibition 1000 nM
Summary of the method: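 Infection of MT2 cells used 10 TCID50/30000 cells, with compound present at ≤1% DMSO for ~96 h. p24 in well aliquots was quantified by kit. Percent inhibition is relative to vehicle controls.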

[2] = Cyto-toxicity assay (MTT) in MT2 cells without virus; format: cell-based; details: human
Method: For cyto-toxicity assay the same amount of MT2 cells as in antiviral assay without virus was added to the 96 well plates. The cyto-toxicity was measured using MTT reagent in parallel with p24 estimation. The percent viability is calculated in comparison with vehicle control.

[3] = Oral PK @ 30 mg/ kg dose in mice (Table 6)
[4] = Oral PK @ 30 mg/ kg dose in mice (Table 6), read-out: AUCt
[5] = Human immunodeficiency virus 1, 100 nM, MT2 cells, HIV-1 92HT599, ~96 hours, p24
[6] = Human immunodeficiency virus 1, 1000 nM, MT2 cells, HIV-1 92HT599, ~96 hours, p24
[7] = Mice oral PK @30 mg/kg (Table 5)
[8] = Mice oral PK @30 mg/kg (Table 5), read-out: AUC 0-t
[9] = Human immunodeficiency virus 1, MT2, 96 h

Structure (SMILES) | Tlast [1, 3] [h] | AUC(0-inf) [1, 3] [µg·h/mL] | Cmax [1, 3] [ng/mL] | Tmax [1, 3] [h] | AUC(0-t) [1, 4] [µg·h/mL] | inhibition at 0.1 µM (HIV-1 strain 92HT599; [5]) [%] | inhibition at 1 µM (HIV-1 strain 92HT599; [6]) [%] | viability at 100 nM [2] [%] | viability at 1000 nM [2] [%] | Cmax [1, 7] [ng/mL] | Tmax [1, 7] [h] | AUC(0-t) [1, 8] [µg·h/mL] | inhibition at 0.1 µM (HIV-1 strain 92HT599; [9]) [%] | inhibition at 1 µM (HIV-1 strain 92HT599; [9]) [%] | viability at 100 nM ([2]; 100 nM, MT2 cells, MTT, read-out: Cytotoxicity % viability 100 nM) [%] | viability at 1000 nM ([2]; 1000 nM, MT2 cells, MTT, read-out: Cytotoxicity % viability 1000 nM) [%]
CCN1CCN(C(=O)[C@]23CC[C@@H](C4(C)CC4)[C@@H]2[C@H]2CC[C@@H]4[C@@]5(C)CC[C@H](OC(=O)CC(C)(C)CC(=O)O)C(C)(C)[C@@H]5CC[C@@]4(C)[C@]2(C)CC3)CC1 [Example 26, 5-(((1R,3aS,5aR,5bR,7aR,9S,11aR,11bR,13aR,13bR)-3a-(4-ethylpiperazine-1-carbonyl)-5a,5b,8,8,8,11a-pentamethyl-1-(1-methylcyclopropyl)icosahydro-1H-cyclopenta[a]chrysen-9-yl)oxy)-3,3-dimethyl-5-oxopentanoic acid] | 24 | 151 | 6900 | 3.5 | 99.4 | 94 | 99 | 100 | 99 | – | – | – | – | – | – | –
CC1([C@@H]2CC[C@]3(C(=O)N4CCC(C(=O)NCCN5CCOCC5)CC4)CC[C@]4(C)[C@H](CC[C@@H]5[C@@]6(C)CC[C@H](OC(=O)[C@H]7C[C@@H](C(=O)O)C7(C)C)C(C)(C)[C@@H]6CC[C@]54C)[C@@H]23)CC1 [Example 50, (1R,3S)-2,2-dimethyl-3-((((1R,3aS,5aR,5bR,7aR,9S,11aR,11bR,13aR,13bR)-5a,5b,8,8,11a-pentamethyl-1-(1-methylcyclopropyl)-3a-(4-((2-morpholinoethyl)carbamoyl)piperidine-1-carbonyl)icosahydro-1H-cyclopenta[a]chrysen-9-yl)oxy)carbonyl)cyclobutane-1-carboxylic acid] | 48 | 171 | 9100 | 6 | 164 | 99 | 99 | 86 | 96 | – | – | – | – | – | – | –
CC1([C@@H]2CC[C@]3(C(=O)N4CCN(CCCN5CCOCC5)CC4)CC[C@]4(C)[C@H](CC[C@@H]5[C@@]6(C)CC[C@H](OC(=O)[C@H]7C[C@@H](C(=O)O)C7(C)C)C(C)(C)[C@@H]6CC[C@]54C)[C@@H]23)CC1 [Example 34] | 48 | 240 | 9200 | 6.5 | 214 | 100 | 100 | 100 | 91 | – | – | – | – | – | – | –
[2H]C([2H])([2H])C(CC(=O)O[C@H]1CC[C@]2(C)[C@H]3CC[C@@H]4[C@H]5[C@H](C6(C)CC6)CC[C@]5(C(=O)N[C@@H]5C[C@H](C(=O)N6CCCCC6)C5(C)C)CC[C@@]4(C)[C@]3(C)CC[C@H]2C1(C)C)(C(=O)O)C([2H])([2H])[2H] [Example 22, 4-(((1R,3aS,5aR,5bR,7aR,9S,11aR,11bR,13aR,13bR)-3a-(((1R,3S)-2,2-dimethyl-3-(piperidine-1-carbonyl)cyclobutyl)carbamoyl)-5a,5b,8,8,11a-pentamethyl-1-(1-methylcyclopropyl)icosahydro-1H-cyclopenta[a]chrysen-9-yl)oxy)-2,2-bis(methyl-d3)-4-oxobutanoic acid] | 24 | 79 | 10200 | 1.8 | 63.9 | 100 | 100 | 100 | 87 | – | – | – | – | – | – | –
Cc1nnc([C@H]2C[C@@H](NC(=O)[C@]34CC[C@@H](C5(C)CC5)[C@@H]3[C@H]3CC[C@@H]5[C@@]6(C)CC[C@H](OC(=O)[C@H]7C[C@@H](C(=O)O)C7(C)C)C(C)(C)[C@@H]6CC[C@@]5(C)[C@]3(C)CC4)C2(C)C)o1 [Example 17, (1R,3S)-3-(((1R,3aS,5aR,5bR,7aR,9S,11aR,11bR,13aR,13bR)-3a-((1R,3S)-2,2-dimethyl-3-(5-methyl-1,3,4-oxadiazol-2-yl)cyclobutylcarbamoyl)-5a,5b,8,8,11a-pentamethyl-1-(1-methylcyclopropyl)icosahydro-1H-cyclopenta[a]chrysen-9-yloxy)carbonyl)-2,2-dimethyl cyclobutanecarboxylicacid] | – | – | – | – | – | 100 | 100 | 77 | 89 | 5940 | 4.5 | 88.3 | – | – | – | –
[2H]C([2H])([2H])C(CC(=O)O[C@H]1CC[C@]2(C)[C@H]3CC[C@@H]4[C@H]5[C@H](C6(C)CC6)CC[C@]5(C(=O)N5CCN(CC)CC5)CC[C@@]4(C)[C@]3(C)CC[C@H]2C1(C)C)(C(=O)O)C([2H])([2H])[2H] [Example 30] | 48 | 78.5 | 4700 | 3.5 | 67.1 | 97 | 99 | 83 | 82 | – | – | – | – | – | – | –
COCCOCCN1CCN(C(=O)[C@]23CC[C@@H](C4(C)CC4)[C@@H]2[C@H]2CC[C@@H]4[C@@]5(C)CC[C@H](OC(=O)[C@H]6C[C@@H](C(=O)O)C6(C)C)C(C)(C)[C@@H]5CC[C@@]4(C)[C@]2(C)CC3)CC1 [Example 40, (1R,3S)-3-((((1R,3aS,5aR,5bR,7aR,9S,11aR,11bR,13aR,13bR)-3a-(4-(2-(2-methoxyethoxy)ethyl)piperazine-1-carbonyl)-5a,5b,8,8,11a-pentamethyl-1-(1-methylcyclopropyl)icosahydro-1H-cyclopenta[a]chrysen-9-yl)oxy)carbonyl)-2,2-dimethylcyclobutane-1-carboxylic acid] | 48 | 119 | 7000 | 4 | 111 | 100 | 99 | 79 | 81 | – | – | – | – | – | – | –
COCCOC1CCN(C(=O)[C@]23CC[C@@H](C4(C)CC4)[C@@H]2[C@H]2CC[C@@H]4[C@@]5(C)CC[C@H](OC(=O)[C@H]6C[C@@H](C(=O)O)C6(C)C)C(C)(C)[C@@H]5CC[C@@]4(C)[C@]2(C)CC3)CC1 [Example 42, (1R,3S)-3-((((1R,3aS,5aR,5bR,7aR,9S,11aR,11bR,13aR,13bR)-3a-(4-(2-methoxyethoxyl)piperidine-1-carbonyl)-5a,5b,8,8,8,11a-pentamethyl-1-(1-methylcyclopropyl)icosahydro-1H-cyclopenta[a]chrysen-9-yl)oxy)carbonyl)-2,2-dimethylcyclobutane-1-carboxylic acid] | 48 | – | 7400 | 32 | 300 | – | – | – | – | – | – | – | 94 | 99 | 86 | 84
[2H]C([2H])([2H])C(CC(=O)O[C@H]1CC[C@]2(C)[C@H]3CC[C@@H]4[C@H]5[C@H](C(=C)C)CC[C@]5(C(=O)N5CCN(CC)CC5)CC[C@@]4(C)[C@]3(C)CC[C@H]2C1(C)C)(C(=O)O)C([2H])([2H])[2H] [Example 25, 4-(((1R,3aS,5aR,5bR,7aR,9S,11aR,11bR,13aR,13bR)-3a-(4-ethylpiperazine-1-carbonyl)-5a,5b,8,8,11a-pentamethyl-1-(prop-1-en-2-yl)icosahydro-1H-cyclopenta[a]chrysen-9-yl)oxy)-2,2-bis(methyl-d3)-4-oxobutanoic acid] | 48 | 122 | 6200 | 4.5 | 108 | 100 | 100 | 100 | 84 | – | – | – | – | – | – | –
C=C(C)[C@@H]1CC[C@]2(C(=O)N[C@@H]3C[C@H](C(=O)N4CCCCC4)C3(C)C)CC[C@]3(C)[C@H](CC[C@@H]4[C@@]5(C)CC[C@H](OC(=O)[C@H]6[C@@H](CC(=O)O)C6(C)C)C(C)(C)[C@@H]5CC[C@]43C)[C@@H]12 [Example 18, 2-((1R,3S)-3-(((1R,3aS,5aR,5bR,7aR,9S,11aR,11bR,13aR,13bR)-3a-((1R,3S)-2,2-dimethyl-3-(piperidine-1-carbonyl)cyclobutylcarbamoyl)-5a,5b,8,8,11a-pentamethyl-1-(prop-1-en-2-yl)icosahydro-1H-cyclopenta[a]chrysen-9-yloxy)carbonyl)-2,2-dimethylcyclopropyl)acetic acid] | – | – | – | – | – | 100 | 100 | 82 | 77 | 4230 | 2.25 | 36.6 | – | – | – | –
